Measured values: patent US8546428B2 (priority 2006, dated 2013)

Test system: Mycobacteria including drug resistant strains, in particular Mycobacterium tuberculosis, M. bovis, M. avium, M. leprae and M. marinum
Type: cell-based

## COc1nc2ccc(Br)cc2cc1[C@@H](c1ccccc1)[C@@](O)(CCN(C)C)c1cccc2ccccc12.O=C(O)/C=C/C(=O)O [Present fumarate salt, (alpha S, beta R)-6-bromo-alpha-[2-(dimethylamino)ethyl]-2-methoxy-alpha-1-naphthalenyl-beta-phenyl-3-quinolineethanol (2E)-2-butenedioate (1:1)]
  activity against Mycobacteria: shows activity
